This note sets out measurements from EP0018189B1 (priority 1979, dated 1980).

Molecules are shown by their SMILES.

Test [1] concerns poliomyelitis vaccines (Types 1, 2 and 3): Type 3. It is filed as in vivo. To be noted: guinea pigs.
For test [2], the system named is poliomyelitis vaccines (Types 1, 2 and 3): Type 1. The arrangement: species or system guinea pigs. To be noted: guinea pig, in vivo.
For test [3], the system named is poliomyelitis vaccines (Types 1, 2 and 3): Type 2. The test is classed as in vivo. To be noted: guinea pigs.
Where [4] appears, read: undiluted, 1/10 and 1/100 dilutions, determined by comparison of ED50.

Consider `CCCCCCCCCCCCCCCCCCOC(=O)[C@@H](N)Cc1ccc(O)cc1` [octadecyl tyrosine], for which the “factor more potent than the vaccine containing aluminum phosphate, type 3” value in test [1] turned out to be 1.4. Further, the “Potency Relative to Unadsorbed Vaccine, Type 3” value in test [1] (setting [4]) came to 8.5. In addition, in test [2], the “Potency Relative to Unadsorbed Vaccine, Type 1” value is reported as 13.8 and the “factor more potent than the vaccine containing aluminum phosphate, type 1” value turned out to be 5.2. For the same molecule, the “factor more potent than the vaccine containing aluminum phosphate, type 2” value in test [3] worked out at 1.9. For the same molecule, the “Potency Relative to Unadsorbed Vaccine, Type 2” value in test [3] (setting [4]) is 3.2.
